Assay results: PMC7804859, “A metabolically stable apelin-17 analog decreases AVP-induced antidiuresis and improves hyponatremia” (Nature Communications, 2021)
“And” between values parts separate entries of the source, which are not always exact repeats. Equal entries are not always repeated.

What was measured:
rat apelin-R = target: T1, rat apelin-R (Rattus norvegicus, UniProt Q9JHG3); assay: Radioligand binding ([125I]-pE13F) to membranes from CHO cells stably expressing rat apelin-R-EGFP; conditions: 1 h 20 °C, pH 7.4, new batch of LIT01-196
T1 construct: expressed in transfected cells; membrane preparation
T1 sequence (Q9JHG3 1-377): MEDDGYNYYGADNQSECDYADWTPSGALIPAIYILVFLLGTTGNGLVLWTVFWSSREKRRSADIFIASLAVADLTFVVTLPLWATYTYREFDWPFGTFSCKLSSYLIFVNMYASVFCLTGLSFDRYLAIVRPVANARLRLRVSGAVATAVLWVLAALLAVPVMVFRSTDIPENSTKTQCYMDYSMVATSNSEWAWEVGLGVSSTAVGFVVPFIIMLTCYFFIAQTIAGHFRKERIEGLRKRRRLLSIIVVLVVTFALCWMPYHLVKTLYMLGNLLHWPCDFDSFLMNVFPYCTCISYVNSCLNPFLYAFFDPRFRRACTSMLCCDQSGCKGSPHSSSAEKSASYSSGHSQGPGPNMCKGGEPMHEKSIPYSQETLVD
Description: Membranes from CHO cells stably expressing rat apelin-R-EGFP were prepared as previously described[23]. […] The reaction was stopped by adding ice-cold binding buffer and filtering through Whatman GF/C filters. The filters were washed and radioactivity was counted with a Wizard 1470 Wallac gamma counter (PerkinElmer, Turku, Finland).

in vivo [1] = conditions: for Apelin (plasma apelin-immunoreactive level): single animals
Description: (§1) 187 Apelin radioimmunoassay
(§2) 188 Plasma samples (0.5 ml) were acidified with 0.175 ml of 3 mol/l HCl and stored at -80°C
(§3) 189 until use for apelin RIA. Before thawing the sample on ice, 0.05% BSA was added, and the
(§4) 190 samples were centrifuged at 20000 x g at 4°C for 10 min. The supernatants were collected and
(§5) 191 the pH was adjusted to 6.5 with 10 mol/l NaOH and 2 mol/l Tris-HCl buffer (pH 7.4). Apelin
(§6) 192 was extracted from plasma by mixing the supernatant with 0.3 ml of 0.1% BSA in H2O and 1
(§7) 193 ml of 1% trifluoroacetic acid (TFA) - 0.1% BSA, and running the mixture on a Sep-Pak C18
(§8) 194 cartridge (Waters) previously washed with 2 ml 100% acetonitrile and equilibrated with 5 ml
(§9) 195 1% TFA - 0.1% BSA. The columns then were washed with 3 ml 1% TFA - 0.1% BSA and
(§10) 196 apelin was eluted with 1.5 ml 100% acetonitrile. […]
(§11) 208 Plasma or brain apelin levels w ere deter mined by RIA. Samples (0.1ml) w ere mixed with 125I-
(§12) 211 dilution: 1/4500) to give a total volume of 0.2 ml and were incubated at 4°C overnight. We
(§13) 212 used this radioligand instead of [Glp65, Nle75, Tyr77] [125I]-apelin13 since the substitution of
(§14) 214 derivatives as described previously by 3,4.
(§15) 215 We then added 0.5 ml of Amerlex (Amersham RPN 510), and the resulting mixture was
(§16) 216 incubated for 10 min at room temperature. The tubes were centrifuged at 2600 x g at 4°C for
217 20 min. The supernatant was removed and the radioactivity of the precipitates was measured.
218 We assessed the cross-reactivity of the apelin antiserum with various N- and C-terminally
232 according to the following equation: [plasma apelin] tx = [plasma apelin] t0 * e(-kt) , where k is
233 the elimination rate constant. […]

in vivo [2] = conditions: mice, 30 min after s.c. 900 nmol/kg
Description: as §1, §2, §3, §4, §5, §6, §7, §8, §9, §10, §11, §12, §13, §14, §15, §16
217 20 min. The supernatant was removed and the radioactivity of the precipitates was measured. […]

[3] = Plasma LIT01-196 levels by mass spectrometry after i.v. injection in mice; format: in vivo, mouse; conditions: for Apelin (plasma LIT01-196 concentration by mass spectrometry): 300 nmol/kg IV
Excerpt: The detection limit was 6
The within- and between-assay
229 coefficients of variation were 3 and 5%, respectively6. The recovery (mean±SEM) was
233 the elimination rate constant.
236 animals per time point).
242 and 0.05% formic acid; solvent B: acetonitrile). Plasma samples were processed before RP-
244 acetonitrile for protein precipitation and compound extraction. Samples were vortex-stirred
248 standard and compared to standard curves. Standard curves were obtained by analyzing
250 using the same procedure. Pharmacokinetics parameters were calculated using a one-
Peptide injection and blood sample collection were performed by […]

[4] = Brain apelin-immunoreactive levels in rats (RIA); format: in vivo, rat
Description: as §1
(§17) 189 until use for apelin RIA.
(§18) The supernatants were collected and
(§19) The samples were dried and dissolved in
(§20) 201 centrifuged (17000 x g, 4°C, 20 min). The supernatant (4 ml) was collected, and mixed with
(§21) The columns were then treated as described in
(§22) Samples (0.1ml) w ere mixed with 125I-
as §13, §14
(§23) 216 incubated for 10 min at room temperature.

control rats = assay: Plasma AVP and apelin-IR levels in control rats (RIA); format: in vivo, rat; parameters: Apelin / AVP: unit not given here
Description: as §1, §17, §18, §19, §20, §21, §22, §13, §14, §23
This antiserum identified the apelin present in the
Most of the apelin in human plasma was
252 TechMedILL platfor m (Illkirch) reviewed and approved by the agriculture ministry regulating
256 Male Sprague-Dawley rats were killed by decapitation, and trunk blood was collected on ice
257 (into 50 µl of 0.3M EDTA (pH 7.4) per 1 ml of blood). Samples were centrifuged (2,600 x g,
258 4°C, 20 min), and the resulting plasma was split into 500 µl aliquots, to which we added 168
259 µl of 3N HCl before storage at -80°C. The AVP RIA was performed as previously described
260 5, using a specific AVP-[Arg8] antibody (final dilution, 1/4.5) and [125I]-(Tyr2Arg8)-AVP
261 (2200 Ci/mmol, Perkin-Elmer, Billerica, MA; 15000 dpm) as a tracer. […]

[5] = tested on: hyponatremic rats (AVP 30 ng/h); assay: Effects of LIT01-196 and tolvaptan in rat model of AVP-induced hyponatremia; format: in vivo
Description: Meloxicam was administered postoperatively for analgesia. Animals were then individually housed in metabolic cages (Techniplast), and given a semi-liquid diet consisting of 25 ml Gel-Diet Breeding-10 (SAFE, Augy, France) mixed with 25 ml tap water per day, with water available ad libitum. Animal weight, water, and food consumption were measured daily. Urine was collected daily, urinary electrolytes (Na^+, K^+, Cl^−) were determined with an ISE 3000 (Caretium Medical Instruments, Shenzhen, China) and urinary osmolality was measured with a Cryobasic 1 osmometer (Astori Tecnica, Poncarale, Italy). Blood samples were collected on ice, before implantation of the osmotic minipump, and before drug administration, under isoflurane anesthesia, from the tail vein (4 µl of lithium heparinate (1600 IU/ml) for 400 µl of blood). The blood samples were immediately centrifuged (4 °C, 2600 × g, 20 min), and plasma electrolyte (Na^+, K^+, Cl^−) levels were quantified with an ISE 3000. On the last day of the experiment, blood was also collected on ice by intracardiac puncture. This blood sample was collected into lithium heparinate under isoflurane anesthesia; plasma electrolyte levels were determined as described above and the animals were immediately killed by carbon monoxide inhalation.

Q: With CSCC[C@H](NC(=O)[C@@H]1CCCN1C(=O)CNC(=O)[C@H](CCCCN)NC(=O)[C@H](Cc1c[nH]cn1)NC(=O)[C@H](CO)NC(=O)[C@H](CC(C)C)NC(=O)[C@H](CCCNC(=N)N)NC(=O)[C@@H]1CCCN1C(=O)[C@H](CCCNC(=N)N)NC(=O)[C@H](CCC(N)=O)NC(=O)[C@H](CCCNC(=N)N)NC(=O)[C@H](CCCNC(=N)N)NC(=O)[C@H](Cc1ccccc1)NC(=O)[C@H](CCCCN)NC(=O)CCC(F)(F)C(F)(F)C(F)(F)C(F)(F)C(F)(F)C(F)(F)C(F)(F)C(F)(F)F)C(=O)N1CCC[C@H]1C(=O)N[C@@H](Cc1ccccc1)C(=O)O [LIT01-196] as the compound, how does the Ki (rat apelin-R) read?
A: 0.34 ± 0.05 nM

Q: And the plasma apelin levels (in vivo [1]; Sprague-Dawley rats, 30 min after s.c. 900 nmol/kg, basal 0.36 ± 0.05, n = 5)?
A: 1.3 ± 0.22 pmol/mL

Q: What about the “in vivo half-life in the blood circulation, i.v.” value (in vivo [1]; alert rats, 15 nmol/kg i.v., RIA) of the same compound?
A: 28 min

Q: What about the “in vivo half-life in the blood circulation, s.c.” value (in vivo [1]; alert rats, 900 nmol/kg s.c., RIA) of the same compound?
A: 156 min

Q: What about the “Apelin (plasma apelin-immunoreactive level)” value (in vivo [1]; rats, 15 nmol/kg IV, time 5 min) of the same compound?
A: 3.535 and 7.0448

Q: And the “Apelin (plasma apelin-immunoreactive level)” value (in vivo [1]; rats, 15 nmol/kg IV, time 7.5 min)?
A: 6.127 and 4.75 and 3.783

Q: What about the “Apelin (plasma apelin-immunoreactive level)” value (in vivo [1]; rats, 15 nmol/kg IV, time 10 min) of the same compound?
A: 3.32 and 4.264

Q: And the “Apelin (plasma apelin-immunoreactive level)” value (in vivo [1]; rats, 15 nmol/kg IV, time 15 min)?
A: 3.56 and 2.876 and 2.207

Q: What about the “Apelin (plasma apelin-immunoreactive level)” value (in vivo [1]; rats, 15 nmol/kg IV, time 60 min) of the same compound?
A: 1.212 and 1.2225

Q: And the “Apelin (plasma apelin-immunoreactive level)” value (in vivo [1]; rats, 900 nmol/kg SC, time 60 min)?
A: 3.999 and 3.58

Q: And the “Apelin (plasma apelin-immunoreactive level)” value (in vivo [1]; rats, 900 nmol/kg SC, time 120 min)?
A: 2.002 and 1.919 and 1.949

Q: What about the “Apelin (plasma apelin-immunoreactive level)” value (in vivo [1]; rats, 900 nmol/kg SC, time 270 min) of the same compound?
A: 1.1931 and 0.8899 and 1.066

Q: And the “Apelin (plasma apelin-immunoreactive level)” value (in vivo [1]; rats, 900 nmol/kg SC, time 360 min)?
A: 1.029 and 0.9091 and 0.7789

Q: And the “Apelin (plasma apelin-immunoreactive level)” value (in vivo [1]; rats, 900 nmol/kg SC, time 1440 min)?
A: 0.4742 and 0.5151 and 0.6469

Q: And the “plasma apelin levels, times higher than basal levels” value (in vivo [1]; rats, 30 min after s.c. 900 nmol/kg)?
A: 3.6 times

Q: And the “plasma apelin-IR levels, times basal levels” value (in vivo [2])?
A: 9.7 times

Q: What about the “plasma apelin-IR levels” value (in vivo [2]; basal 1.3 ± 0.073, n = 5) of the same compound?
A: 12.4 ± 2.5 pmol/mL

Q: What about the “Apelin (plasma LIT01-196 concentration by mass spectrometry)” value ([3]; temps.min 5, single animals) of the same compound?
A: 774.627 and 804.594 and 622.343

Q: And the “Apelin (plasma LIT01-196 concentration by mass spectrometry)” value ([3]; temps.min 15, single animals)?
A: 548.524 and 627.056 and 820.177

Q: What about the “Apelin (plasma LIT01-196 concentration by mass spectrometry)” value ([3]; temps.min 28, single animals) of the same compound?
A: 266.538 and 138.326 and 371.965

Q: What about the “Apelin (plasma LIT01-196 concentration by mass spectrometry)” value ([3]; temps.min 60, single animals) of the same compound?
A: 64.4359 and 230.369 and 324.336

Q: What about the half-life ([3]; CD-1, mouse, in vivo, iv, 300 nmol/kg i.v., UHPLC-MS/MS, one-compartment model, 3 animals per time point) of the same compound?
A: 29 min

Q: What about the “crossing of the blood-brain barrier” value ([4]; rats and mice, 30 min after s.c. 900 nmol/kg) of the same compound?
A: does not cross the BBB and does not enter the brain

Q: What about the Brain apelin ([4]; rats, 30 min after 900 nmol/kg SC, single animals) of the same compound?
A: 1.581 and 0.931 and 1.563 and 1.024 and 1.473

Q: And the “apelin-IR levels in the brain” value ([4]; rats, 30 min after s.c. 900 nmol/kg, saline 1.2 ± 0.15, n = 5)?
A: 1.3 ± 0.14 pmol/brain

Q: And the “plasma apelin-IR levels, higher than in control rats” value (control rats; 3 h after 900 nmol/kg s.c.)?
A: 185%

Q: And the “plasma apelin/AVP ratio, higher than in control rats” value (control rats; 3 h after 900 nmol/kg s.c.)?
A: 105%

Q: And the “plasma AVP levels, higher than in animals receiving saline” value (control rats; 3 h after s.c., tolvaptan 6700 nmol/kg, LIT01-196 900 nmol/kg)?
A: 37%

Q: And the AVP (control rats; plasma AVP, LIT01-196 900 nmol/kg SC, individual animals (Fig. S4F source data))?
A: 22.8083 and 24.884 and 19.0278 and 19.6598 and 20.1271 and 24.6505 and 19.9264

Q: And the Apelin (control rats; plasma apelin-IR, LIT01-196 900 nmol/kg SC, individual animals (Fig. S4E source data))?
A: 1622 and 1536 and 1658 and 938 and 943 and 1033 and 1679

Q: And the apelinAVPratio (control rats; plasma apelin/AVP ratio, LIT01-196 900 nmol/kg SC, individual animals (Fig. S4G source data))?
A: 71.1145 and 61.7264 and 87.1356 and 47.7116 and 46.8522 and 41.9059 and 84.2603

Q: What about the “increase in urine output 24 h after s.c. administration” value (“increase in urine output 24 h” below) ([5]; 180 nmol/kg s.c., rats receiving 30 ng/h AVP) of the same compound?
A: 1.5 ± 2.0 ml/24 h/100 g

Q: And the “urine osmolality, lower than AVP + saline group” value ([5]; 900 nmol/kg s.c. on days 0 and 1)?
A: 58%

Q: And the “urine output, higher than AVP + saline group” value ([5]; 900 nmol/kg s.c. on days 0 and 1, average days 1 to 2, n = 9)?
A: 185%

Q: What about the “plasma sodium concentration on day 2” value ([5]; 900 nmol/kg s.c. on days 0 and 1, saline 100 ± 2) of the same compound?
A: 110 ± 5 mmol/L

Q: What about the “plasma sodium concentration on day 1” value ([5]; 900 nmol/kg s.c., 24 h after first administration, saline 100 ± 2) of the same compound?
A: 109 ± 5 mmol/L

Q: What about the “body weight change from baseline versus saline” value ([5]; 900 nmol/kg s.c., AVP-treated animals) of the same compound?
A: similar

Q: What about the “water consumption (including water in diet), higher than AVP + saline group” value ([5]; 900 nmol/kg s.c., average days 1 to 2) of the same compound?
A: 177%

Q: And the food consumption ([5]; 900 nmol/kg s.c., hyponatremic rats)?
A: significant increase

Q: What about the “increase in urine output 24 h” value ([5]; 900 nmol/kg s.c., rats receiving 30 ng/h AVP and liquid diet) of the same compound?
A: 11.7 ± 2.3 ml/24 h/100 g

Q: What about the “increase in urine output 24 h” value ([5]; 2400 nmol/kg s.c., rats receiving 30 ng/h AVP) of the same compound?
A: 9.2 ± 4.1 ml/24 h/100 g
